What all share (assay): growth of human tumour cells (NCI), 48 h
Test [1] deals with DLD-1 colon.
The subject of test [2] is DMS 114 small cell lung.
Test [3] deals with M14 melanoma.
The test system of test [4] is HL-60(TB) leukemia.
The test system of test [5] is LOX IMVI melanoma.
In test [6] the test system is MDA-MB-435.
Test [7] relates to BT-549 breast.
The subject of test [8] is M19-MEL melanoma.
Test [9] relates to T-47D breast.
Test [10] relates to KM20L2 colon.
For test [11], the system named is NCI/ADR-RES ovarian.
Test [12] has as its system EKVX NSCLC.

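Method: 48-hour compound exposure of cells in 96-well plates, five concentrations, linear interpolation of endpoints. TGI: concentration producing complete growth inhibition.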

Turning to `Oc1cc(-n2cccn2)c(O)cc1-n1cccn1`, the TGI in test [1] was greater than 94.8 µM; in [2] it was greater than 67.6 µM; in [3] it was 60.4 µM; in [4], 15.6 µM; in [5] it was 42.4 µM; in test [6], 31.8 µM. For the same compound, the TGI in [7] is 35.7 µM; in test [8] it was 51.1 µM; in [9] it was 56.3 µM; in [10] it was greater than 100 µM; in test [11] it was greater than 100 µM; in test [12], greater than 83.3 µM.

Turning to `O=C1OC(=O)c2c1c(-c1ccccc1)nc1ccccc21`, the TGI in [1], in [2], in test [3], in test [4], in test [5] and in test [8] was greater than 100 µM throughout. In addition, the TGI in [10] and in [12] was greater than 100 µM in each case.

`N#CC1(C#N)C(c2ccccc2)C=CC12OCCCO2` (stereo not drawn): the TGI is 95.4 µM in [1]; 67.8 µM in test [2]; greater than 100 µM in test [3]; 92.3 µM in [4]; greater than 100 µM in test [5]; greater than 100 µM in test [8]. The TGI in test [10] and in test [12] was greater than 100 µM each time.

For `CCOc1ccc(NC(=O)CCc2nnc(SC)o2)cc1`, the TGI in test [1], in test [2], in [3], in [4], in [5] and in [8] was greater than 100 µM in each case. Besides, the TGI in [10] and in test [12] was greater than 100 µM in each case.

Take `Cc1cc2c(c(C(N)=O)c1C)-c1cc(Cl)cc(Cl)c1C2=O`: the TGI in test [1], in [2], in [3], in test [4], in test [5] and in [8] was greater than 100 µM in each case. For the same compound, the TGI in [10] and in [12] was greater than 100 µM each time.

As to `Cc1cccc(NC(=O)/C(=N\N)C(c2cnc3ccc([N+](=O)[O-])cc3n2)[N+](=O)[O-])c1C` (stereo not drawn), the TGI in [1], in [2], in test [3], in [4], in [5] and in test [8] was greater than 100 µM each time. In addition, the TGI in test [10] and in test [12] was greater than 100 µM in each case.

As to `COc1ccc(-c2[nH]c3ccccc3c2CCNS(=O)(=O)c2ccc(C)cc2)cc1`, the TGI in test [1], in [2], in [3], in test [4], in test [5] and in test [8] was greater than 10 µM throughout. For the same compound, the TGI in test [10] and in test [12] was greater than 10 µM in each case.

`O=C(/C=C/c1ccc(Cl)c(Cl)c1)c1cccc2ccccc12`: the TGI in [1] is 11.4 µM; in test [2] it was 9.51 µM; in [3] it was 30.9 µM; in [4], 7.21 µM; in test [8], 24.6 µM; in test [10] it was 17.7 µM. This compound returned a TGI in test [12] of 32.5 µM.

Regarding `N#CCN1C(=O)c2cc([N+](=O)[O-])cc3cc([N+](=O)[O-])cc(c23)C1=O`, the TGI in [1] was 29.4 µM; in [2], 37.5 µM; in test [3], 48.2 µM; in test [4], greater than 24.1 µM; in test [5], 18.8 µM; in [8], 37.7 µM. Also, the TGI in test [10] worked out at 23.6 µM; in [12], 55.8 µM.

Turning to `c1cc(-c2cn3c(n2)SCC3)ccn1`, the TGI in [1] was greater than 100 µM; in test [2], greater than 89.6 µM; in test [3] it was greater than 100 µM; in [4], greater than 67.5 µM; in [5], greater than 100 µM; in [8], greater than 100 µM. The TGI in test [10] and in test [12] was greater than 100 µM in each case.

Turning to `CCOC(=O)/C(I)=C/c1cc(OC)c(OC)c(OC)c1`, the TGI turned out to be 35.2 µM in [1]; 9.49 µM in test [2]; 14.7 µM in [3]; 26.1 µM in test [4]; 5.01 µM in test [5]; 19.3 µM in [8]. For the same compound, the values for the TGI in test [10] and in test [12] were 12.4 µM and 42.9 µM, respectively.

Regarding `COc1cc(C2(C)SCCCS2)cc(OC)c1OC`, the TGI in test [1], in test [2], in [3], in [4], in test [5] and in test [8] was greater than 100 µM each time. In addition, the TGI in test [10] and in test [12] was greater than 100 µM in each case.

For `N#CNc1nc(N)c(-c2ccc(Cl)cc2)c(C(=O)Nc2nccs2)n1`, the TGI in [1], in test [2], in [3], in test [4], in [5] and in [8] was greater than 100 µM each time. The TGI in test [10] and in [12] was greater than 100 µM in each case.

For the compound `O=C(Cc1nc2ccccc2o1)C(=O)Nc1cccc(C(F)(F)F)c1`, the TGI in test [1], in [2], in test [3], in test [4], in test [5] and in [8] was greater than 100 µM in each case. The TGI in test [10] and in test [12] was greater than 100 µM each time.

In the case of `CCCC(S(=O)(=O)c1ccccc1)S(=O)(=O)c1ccccc1`, the TGI in test [1], in test [2], in test [3], in [4], in test [8] and in test [10] was greater than 100 µM throughout. For the same compound, the TGI in [12] is greater than 100 µM.

For `Cc1ccc(NC(=O)C(=O)C(C(=O)/C=C/c2ccccc2)C2OC(=O)c3ccccc32)c(C)c1` (stereo not drawn), the TGI in [1], in test [2], in [3], in test [4], in test [5] and in test [8] was greater than 100 µM throughout. In addition, the TGI in test [10] and in test [12] was greater than 100 µM in each case.

Consider `c1ccc2c(c1)CCc1c-2n[nH]c1-c1[nH]nc2c1CCc1ccccc1-2`, for which the TGI in [1], in [2], in test [3], in [4], in [5] and in test [8] was greater than 100 µM each time. Also, the TGI in test [10] and in test [12] was greater than 100 µM throughout.

Values taken from PubChem BioAssay (NCI).
